Results as given in patent US5475001A, “Quinazoline derivatives” (Zeneca Limited, priority 1993, dated 1995).

Key:
[1] = tested on: human naso-pharyngeal cancer cell line KB; assay: in vitro inhibition of the growth of the human naso-pharyngeal cancer cell line KB (Test (b)); format: cell-based; settings: 72 h, KB cells, EGF (10 ng/ml), 3 days, MTT
Experimental: (b) An in vitro assay which determines the ability of a test compound to inhibit the growth of the human naso-pharyngeal cancer cell line KB.
KB cells were seeded into wells at a density of 1×10^4 -1.5×10^4 cells per well and grown for 24 hours in DMEM supplemented with 5% FCS (charcoal-stripped). Cell growth was determined after incubation for 3 days by the extent of metabolism of MTT tetrazolium dye to furnish a bluish colour. Cell growth was then determined in the presence of EGF (10 ng/ml) or in the presence of EGF (10 ng/ml) and a test compound at a range of concentrations. An IC50 value could then be calculated.

liver hepatocyte growth = assay: in vivo inhibition of TGFα-stimulated liver hepatocyte growth in male rats (Test (c)); settings: Rattus norvegicus, po
Experimental: (c) An in vivo assay in a group of male rats which determines the ability of a test compound (usually administered orally as a ball-milled suspension in 0.5% polysorbate) to inhibit the stimulation of liver hepatocyte growth caused by the administration of the growth factor TGFα (400 μg/kg subcutaneously, usually dosed twice, 3 and 7 hours respectively after the administration of the test compound).
In a control group of rats, the administration of TGFα causes on average a 5-fold stimulation of liver hepatocyte growth.
Cell-growth in the control and test animals is determined as follows:
On the morning of the day after the dosing of the test compound (or 0.5% polysorbate in the control group), the animals are dosed with bromodeoxyuridine (BrdU; 100 mg/kg intraperitoneally). The animals are killed four hours later and the livers are excised.
Further tests were carried out using a range of doses of the test compounds to allow the calculation of an approximate ED50 value for the inhibition of liver hepatocyte proliferation as determined by inhibition of the uptake of BrdU.

receptor tyrosine kinase = biological target: T1, receptor tyrosine kinase (Homo sapiens, UniProt P00533); assay: in vitro inhibition of the enzyme receptor tyrosine kinase (Test (a)); format: biochemical; settings: enzyme from A-431 cells, EGF stimulated
T1 construct: Receptor tyrosine kinase was obtained in partially purified form from A-431 cells; endogenous in cells; host or cells: A-431 cells (human vulval carcinoma), Triton X-100 solubilised membrane extract
Experimental: (a) An in vitro assay which determines the ability of a test compound to inhibit the enzyme receptor tyrosine kinase. Receptor tyrosine kinase was obtained in partially purified form from A-431 cells (derived from human vulval carcinoma) by procedures related to those described by Carpenter et. al., J. Biol. Chem., 1979, 254, 4884, Cohen et al., J. Biol. Chem., 1982, 257, 1523 and by Braun et al., J. Biol. Chem., 1984, 259, 2051.
A-431 cells were grown to confluence using Dulbecco's modified Eagle's medium (DMEM) containing 5% fetal calf serum (FCS). The obtained cells were homogenised in a hypotonic borate/EDTA buffer at pH 10.1. The homogenate was centrifuged at 400 g for 10 minutes at 0°-4° C. The supernatant was centrifuged at 25,000 g for 30 minutes at 0°-4° C. The pelleted material was suspended in 30 mM Hepes buffer at pH 7.4 containing 5% glycerol, 4 mM benzamidine and 1% Triton X-100, stirred for 1 hour at 0°-4° C., and recentrifuged at 100,000 g for 1 hour at 0°-4° C. The supernatant, containing solubilised receptor tyrosine kinase, was stored in liquid nitrogen.
For test purposes 40 μl of the enzyme solution so obtained was added to a mixture of 400 μl of a mixture of 150 mM Hepes buffer at pH 7.4, 500 μM sodium orthovanadate, 0.1% Triton X-100, 10% glycerol, 200 μl water, 80 μl of 25 mM DTT and 80μl of a mixture of 12.5 mM manganese chloride, 125 mM magnesium chloride and distilled water. There was thus obtained the test enzyme solution. […]
The test compound/EGF mixture solution (5 μl) was added to the test enzyme solution (10 μl) and the mixture was incubated at 0°-4° C. for 30 minutes. […] Radioactivity present in the filter paper was measured using a liquid scintillation counter (Sequence A). […]
Receptor tyrosine kinase inhibition was calculated as follows: [formula]
The extent of inhibition was then determined at a range of concentrations of test compound to give an IC50 value.

[2] = tested on: human mammary carcinoma which expresses epidermal growth factor (EGF) receptor tyrosine kinase; settings: athymic nude mice; Toi et al., 1990; cited from earlier work
[3] = tested on: another carcinoma which does not express EGF receptor tyrosine kinase; settings: Toi et al., 1990; cited from earlier work

T1 sequence (P00533 25-1210): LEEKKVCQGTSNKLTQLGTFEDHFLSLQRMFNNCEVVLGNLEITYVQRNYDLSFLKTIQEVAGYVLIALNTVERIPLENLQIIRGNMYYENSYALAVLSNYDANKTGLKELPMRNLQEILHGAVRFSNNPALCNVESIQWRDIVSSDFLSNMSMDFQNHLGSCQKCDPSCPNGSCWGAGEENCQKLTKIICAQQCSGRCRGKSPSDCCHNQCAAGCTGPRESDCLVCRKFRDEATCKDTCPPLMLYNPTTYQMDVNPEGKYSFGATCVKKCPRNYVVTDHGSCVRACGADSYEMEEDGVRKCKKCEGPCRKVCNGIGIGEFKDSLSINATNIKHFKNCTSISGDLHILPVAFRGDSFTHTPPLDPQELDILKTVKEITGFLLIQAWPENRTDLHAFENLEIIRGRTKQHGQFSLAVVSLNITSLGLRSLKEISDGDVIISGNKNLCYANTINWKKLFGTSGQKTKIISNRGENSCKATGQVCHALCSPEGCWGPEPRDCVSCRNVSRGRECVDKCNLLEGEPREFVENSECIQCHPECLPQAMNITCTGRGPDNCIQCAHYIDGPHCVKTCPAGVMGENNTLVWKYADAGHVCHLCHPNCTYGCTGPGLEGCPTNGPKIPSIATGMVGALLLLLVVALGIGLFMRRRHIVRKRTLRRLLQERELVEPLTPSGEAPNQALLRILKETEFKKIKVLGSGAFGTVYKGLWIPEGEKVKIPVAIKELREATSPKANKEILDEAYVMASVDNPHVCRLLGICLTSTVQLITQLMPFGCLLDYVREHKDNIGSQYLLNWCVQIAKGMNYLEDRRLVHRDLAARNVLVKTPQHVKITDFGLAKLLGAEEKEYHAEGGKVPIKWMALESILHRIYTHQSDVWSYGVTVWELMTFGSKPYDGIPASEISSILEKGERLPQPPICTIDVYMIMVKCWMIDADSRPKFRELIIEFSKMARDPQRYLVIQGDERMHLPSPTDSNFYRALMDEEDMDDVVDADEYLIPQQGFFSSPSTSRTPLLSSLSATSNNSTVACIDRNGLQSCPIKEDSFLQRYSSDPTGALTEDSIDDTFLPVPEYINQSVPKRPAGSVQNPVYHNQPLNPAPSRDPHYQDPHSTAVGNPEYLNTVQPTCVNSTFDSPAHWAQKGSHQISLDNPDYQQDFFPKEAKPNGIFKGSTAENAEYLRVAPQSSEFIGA
T1 sequence (P01133 971-1023 partner limits assumed): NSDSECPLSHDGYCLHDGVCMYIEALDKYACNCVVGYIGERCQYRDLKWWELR

In the case of `COc1cc2c(Nc3ccc(F)c(Cl)c3)ncnc2cc1F` [4-(3'-chloro-4'-fluoroanilino)-7-fluoro-6-methoxyquinazoline], the IC50 [1] is reported as 530 nM, the ED50 (liver hepatocyte growth) is reported as less than 12.5 mg/kg and the IC50 (receptor tyrosine kinase) is reported as 70 nM.
`Cc1cccc(Nc2ncnc3cc(F)c(NC(=O)CCl)cc23)c1` [6-(2-chloroacetamido)-7-fluoro-4-(3'-methylanilino)quinazoline] showed an IC50 [1] of 20 nM and an IC50 (receptor tyrosine kinase) of 10 nM.
`Cc1cccc(Nc2ncnc3cc(F)c(N)cc23)c1` [6-amino-7-fluoro-4-(3'-methylanilino)quinazoline] showed an IC50 [1] of 680 nM, an ED50 (liver hepatocyte growth) of less than 40 mg/kg and an IC50 (receptor tyrosine kinase) of 75 nM.
In the case of `O=CN/C=C/c1cc(O)ccc1O` [erbstatin], the “growth of transplanted human mammary carcinoma expressing EGF receptor tyrosine kinase” value [2] is given as “specifically attenuates the growth” and the “growth of another carcinoma which does not express EGF receptor tyrosine kinase” value [3] is given as “without effect on the growth”.
